{"source": "patent US20150087673A1", "about": "“METHODS FOR USING AND BIOMARKERS FOR AMPK-ACTIVATING COMPOUNDS” (RIGEL PHARMACEUTICALS, INC., priority 2013, published 2015)", "data": [{"tested_on": "AMPK", "experiment": "AMPK activation assay (enzyme-linked immunosorbent assay)", "type": "cell-based", "procedure,_shortened": "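Kit-based immunoassay; compounds screened as activators; standard reagents and protocol.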", "units": {"EC50": "nM"}, "values": [{"smiles": "N#Cc1ccc(OC2CCN(C(=O)c3ccc(C(=O)NC4CCNCC4)cn3)CC2)cc1", "note": "[Compound 335, 6-(4-(4-cyanophenoxy)piperidine-1-carbonyl)-N-(piperidin-4-yl) nicotinamide]", "EC50": "> 10000"}, {"smiles": "N#Cc1ccc(CN2CC[C@@H](NC(=O)c3ccc(C(=O)N4CCN(Cc5ccc(F)cc5)CC4)cn3)[C@@H](F)C2)cc1", "note": "[Compound 100]", "EC50": "< 500"}, {"smiles": "N#Cc1ccc(CN2CCC(NC(=O)c3ccc(C(=O)N4CC[C@H](Oc5ccc(C#N)cc5)[C@@H](F)C4)cn3)CC2)cc1", "note": "(relative stereo) [Compound 279, N-(1-(4-cyanobenzyl)piperidin-4-yl)-5-((trans)-4-(4-cyanophenoxy)-3-fluoropiperidine-1-carbonyl)picolinamide]", "EC50": "< 500"}, {"smiles": "N#Cc1ccc(CN2CCC(NC(=O)c3ccc(C(=O)Nc4cccc(Cc5ccccc5)c4)cn3)CC2)cc1", "note": "[Compound 5, N^2-(1-(4-cyanobenzyl)piperidin-4-yl)-N^5-(3-benzylphenyl)pyridine-2,5-dicarboxamide]", "EC50": "500 to 1000"}, {"smiles": "COc1ccc(CN2CCC(NC(=O)c3ccc(C(=O)N4CCC(Oc5ccc(F)cc5F)CC4)nc3)CC2)cc1", "note": "[Compound 344, 6-(4-(2,4-difluorophenoxy)piperidine-1-carbonyl)-N-(1-(4-methoxybenzyl)piperidin-4-yl)nicotinamide]", "EC50": "< 500"}, {"smiles": "N#Cc1ccc(CN2CCC(NC(=O)c3ccc(C(=O)N4CCN(c5ccc(S(=O)(=O)C(F)(F)F)cc5)CC4)cn3)CC2)cc1", "note": "[Compound 257, N-(1-(4-cyanobenzyl)piperidin-4-yl)-5-(4-(4-(trifluoromethylsulfonyl)phenyl)piperazine-1-carbonyl)picolinamide]", "EC50": "< 500"}, {"smiles": "N#Cc1ccc(CNC(=O)c2ccc(-c3ccc(C(=O)N4CCN(Cc5ccc(F)cc5)CC4)cn3)cc2)cc1", "note": "[Compound 35, (6-(4-(4-cyanobenzylcarbamoyl)phenyl)pyridin-3-yl)(4-(4-fluorobenzyl)piperazin-1-yl)methanone]", "EC50": "500 to 1000"}, {"smiles": "N#Cc1ccc(O[C@H]2CC[C@@H](NC(=O)c3ccc(C(=O)N4CCN(Cc5ccc(F)cc5)CC4)nc3)CC2)cc1", "note": "[Compound 332, N-((cis)-4-(4-cyanophenoxy)cyclohexyl)-6-(4-(4-fluorobenzyl)piperazine-1-carbonyl)nicotinamide]", "EC50": "< 500"}, {"smiles": "O=C(Nc1ccc(Oc2ccc(F)cc2)nc1)c1ccc(C(=O)N2CCC(Oc3ccc(S(F)(F)(F)(F)F)cc3)CC2)nc1", "note": "[Compound 496, N-(6-(4-fluorophenoxy)pyridin-3-yl)-6-(4-(4-(pentafluorosulfanyl)phenoxy)piperidine-1-carbonyl)nicotinamide]", "EC50": "< 500"}, {"smiles": "N#Cc1ccc(CN2CCC(NC(=O)c3ccc(N4CCC(Oc5ccc(C(F)(F)F)cc5)CC4)nn3)CC2)cc1", "note": "[Compound 361, N-(1-(4-cyanobenzyl)piperidin-4-yl)-6-(4-(4-(trifluoromethyl)phenoxy)piperidin-1-yl)pyridazine-3-carboxamide]", "EC50": "< 500"}, {"smiles": "N#Cc1ccc(CN2CCC(NC(=O)c3cccc(C(=O)NC4CCN(Cc5ccc(C#N)cc5)CC4)n3)CC2)cc1", "note": "[Compound 86, N2,N6-bis(1-(4-cyanobenzyl)piperidin-4-yl)pyridine-2,6-dicarboxamide]", "EC50": "1000 to 5000"}, {"smiles": "O=C(NC1CCN(Cc2ccccc2)CC1)c1ccc(Nc2ccc(Oc3ccccc3)cc2)cn1", "note": "[Compound 113, N-(1-benzylpiperidin-4-yl)-5-(4-phenoxyphenylamino)picolinamide]", "EC50": "1000 to 5000"}, {"smiles": "N#Cc1ccc(CN2CCC(NC(=O)c3ccc(C(=O)N4CCN(c5ccc(C#N)cc5)CC4)cn3)CC2)cc1", "note": "[Compound 340, N-(1-(4-cyanobenzyl)piperidin-4-yl)-5-(4-(4-cyanophenyl)piperazine-1-carbonyl)picolinamide]", "EC50": "< 500"}, {"smiles": "O=C(NC1CCN(Cc2ccc(F)cc2)CC1)c1ccc(C(=O)N2CCC(Oc3ccc(F)cc3)CC2)cn1", "note": "[Compound 180, N-(1-(4-fluorobenzyl)piperidin-4-yl)-5-(4-(4-fluorophenoxy)piperidine-1-carbonyl)picolinamide]", "EC50": "< 500"}, {"smiles": "CC(=O)Nc1cccc(OC2CCN(C(=O)c3ccc(C(=O)NC4CCN(Cc5cccc(OC(F)(F)F)c5)CC4)cn3)CC2)c1", "note": "[Compound 429, 6-(4-(3-acetamidophenoxy)piperidine-1-carbonyl)-N-(1-(3-(trifluoromethoxy)benzyl)piperidin-4-yl)nicotinamide]", "EC50": "500 to 1000"}, {"smiles": "CCOC(=O)c1ccc(OC2CCN(C(=O)c3ccc(C(=O)NC4CCN(Cc5ccc(C#N)cc5)CC4)nc3)CC2)cc1", "note": "[Compound 284, ethyl 4-(1-(6-(1-(4-cyanobenzyl)piperidin-4-ylcarbamoyl)nicotinoyl)piperidin-4-yloxy)benzoate]", "EC50": "< 500"}, {"smiles": "Cc1cccc(Oc2ccc(NC(=O)c3ccc(C(=O)N4CCN(Cc5ccc(F)cc5)CC4)cn3)cc2)c1", "note": "[Compound 58, 5-(4-(4-fluorobenzyl)piperazine-1-carbonyl)-N-(4-(3-methylphenoxy)phenyl)picolinamide]", "EC50": "< 500"}, {"smiles": "COc1ccc(C(=O)C2CCN(C(=O)c3ccc(C(=O)N(C)C4CCN(Cc5ccc(C#N)cc5)CC4)cn3)CC2)cc1", "note": "[Compound 482, N-(1-(4-cyanobenzyl)piperidin-4-yl)-6-(4-(4-methoxybenzoyl)piperidine-1-carbonyl)-N-methylnicotinamide]", "EC50": "< 500"}, {"smiles": "O=C(NC1CCN(Cc2ccc(OC(F)(F)F)cc2)CC1)c1ccc(C(=O)N2CCC(Oc3ccc(S(=O)(=O)C4CC4)cc3)CC2)nc1", "note": "[Compound 249, 6-(4-(4-(cyclopropylsulfonyl)phenoxy)piperidine-1-carbonyl)-N-(1-(4-(trifluoromethoxy)benzyl)piperidin-4-yl)nicotinamide]", "EC50": "< 500"}, {"smiles": "CC1(C)CN(C(=O)c2ccc(C(=O)NC3CCN(Cc4ccc(C#N)cc4)CC3)nc2)CCN1Cc1ccc(F)cc1", "note": "[Compound 125, N-(1-(4-cyanobenzyl)piperidin-4-yl)-5-(4-(4-fluorobenzyl)-3,3-dimethylpiperazine-1-carbonyl)picolinamide]", "EC50": "< 500"}, {"smiles": "O=C(NC1CCN(Cc2ccc(F)cc2)CC1)c1ccc(C(=O)N2CCC(C(=O)c3ccc(N4CCCC4)cc3)CC2)nc1", "note": "[Compound 381, N-(1-(4-fluorobenzyl)piperidin-4-yl)-6-(4-(4-(pyrrolidin-1-yl)benzoyl)piperidine-1-carbonyl)nicotinamide]", "EC50": "< 500"}, {"smiles": "N#Cc1ccc(CN2CCC(Nc3ccc(C(=O)N4CCN(Cc5ccc(F)cc5)CC4)cn3)CC2)cc1", "note": "[Compound 36, (6-(4-(cyanobenzyl)piperidin-4-ylamino)pyridin-3-yl)(4-(4-fluorobenzyl)piperazin-1-yl)methanone]", "EC50": "500 to 1000"}, {"smiles": "N#Cc1ccc(CN2CCC(NC(=O)c3ccc(N4CCCC(Oc5ccc(C#N)cc5)C4)cn3)CC2)cc1", "note": "(stereo not shown) [Compound 265, N-(1-(4-cyanobenzyl)piperidin-4-yl)-5-(3-(4-cyanophenoxy)piperidin-1-yl)picolinamide]", "EC50": "1000 to 5000"}, {"smiles": "COc1ccc(CN2CCC(NC(=O)c3ccc(C(=O)N4CCC(Oc5ccc(S(C)(=O)=O)cc5)CC4)nc3)CC2)cc1", "note": "[Compound 237, N-(1-(4-methoxybenzyl)piperidin-4-yl)-6-(4-(4-(methylsulfonyl)phenoxy)piperidine-1-carbonyl)nicotinamide]", "EC50": "1000 to 5000"}, {"smiles": "N#Cc1ccc(CN2CCC(NC(=O)c3ccc(C(=O)N4CCC(Oc5ccc(SC(F)(F)F)cc5)CC4)cn3)CC2)cc1", "note": "[Compound 410, N-(1-(4-cyanobenzyl)piperidin-4-yl)-5-(4-(4-(trifluoromethylthio)phenoxy)piperidine-1-carbonyl)picolinamide]", "EC50": "< 500"}, {"smiles": "COc1ccc(C(=O)C2CCN(C(=O)c3ccc(C(=O)NC4CCN(Cc5ccc(C#N)cc5)CC4(F)F)cn3)CC2)cc1", "note": "(stereo not shown) [Compound 498, N-(1-(4-cyanobenzyl)-3,3-difluoropiperidin-4-yl)-6-(4-(4-methoxybenzoyl)piperidine-1-carbonyl)nicotinamide]", "EC50": "< 500"}, {"smiles": "COc1ccc(C(=O)C2CCN(C(=O)c3ccc(C(=O)NC4CCN(Cc5cccc(OC(F)(F)F)c5)CC4)cn3)CC2)cc1", "note": "[Compound 424, 6-(4-(4-methoxybenzoyl)piperidine-1-carbonyl)-N-(1-(3-(trifluoromethoxy)benzyl)piperidin-4-yl)nicotinamide]", "EC50": "< 500"}, {"smiles": "N#Cc1ccc(CN2CCC(NC(=O)c3ccc(C(=O)N4CCC(Cc5ccc(F)cc5)CC4)cn3)CC2)cc1", "note": "[Compound 130, N-(1-(4-cyanobenzyl)piperidin-4-yl)-5-(4-(4-fluorobenzyl)piperidine-1-carbonyl)picolinamide]", "EC50": "< 500"}, {"smiles": "N#Cc1ccc(CN2CCC(NC(=O)c3ccc(C(=O)NC4CCN(Cc5ccc(C#N)cc5)CC4)nn3)CC2)cc1", "note": "[Compound 386, N3,N6-bis(1-(4-cyanobenzyl)piperidin-4-yl)pyridazine-3,6-dicarboxamide]", "EC50": "> 10000"}, {"smiles": "CS(=O)(=O)c1ccc(OC2CCN(C(=O)c3ccc(C(=O)NC4CCN(Cc5ccc(C#N)cc5)CC4)nc3)CC2)cc1", "note": "[Compound 227, N-(1-(4-cyanobenzyl)piperidin-4-yl)-5-(4-(4-(methylsulfonyl)phenoxy)piperidine-1-carbonyl)picolinamide]", "EC50": "< 500"}, {"smiles": "O=C(NC1CCN(C(=O)c2ccccc2)CC1)c1ccc(C(=O)N2CCN(Cc3ccc(F)cc3)CC2)cn1", "note": "[Compound 8, N-(1-(benzoyl)piperidin-4-yl)-5-(4-(4-fluorobenzyl)piperazine-1-carbonyl)picolinamide]", "EC50": "< 500"}, {"smiles": "O=C(Nc1ccc(Oc2ccc(F)cc2)nc1)c1ccc(C(=O)N2CCC(C(=O)c3ccc(F)cc3F)CC2)nc1", "note": "[Compound 348, 6-(4-(2,4-difluorobenzoyl)piperidine-1-carbonyl)-N-(6-(4-fluorophenoxy)pyridin-3-yl)nicotinamide]", "EC50": "< 500"}, {"smiles": "O=C(Nc1ccc(Oc2ccc(F)cc2)nc1)c1ccc(C(=O)N2CCC(Oc3ccc(F)cc3F)CC2)nc1", "note": "[Compound 343, 6-(4-(2,4-difluorophenoxy)piperidine-1-carbonyl)-N-(6-(4-fluorophenoxy)pyridin-3-yl)nicotinamide]", "EC50": "< 500"}, {"smiles": "O=C(c1ccc(Nc2ccc(-c3ccccc3)cc2)nc1)N1CCN(Cc2ccc(F)cc2)CC1", "note": "[Compound 37, (6-(4-phenylphenylamino)pyridin-3-yl)(4-(4-fluorobenzyl)piperazin-1-yl)methanone]", "EC50": "5000 to 10000"}]}]}
